Earlier results on one substance are cited in PMC7172884 (Journal of Molecular Biology, 2006).

Series [1] has as its target T1, HAV 3C (Human hepatitis A virus genotype IB, UniProt P08617).
T1 sequence (P08617 1520-1738 limits assumed): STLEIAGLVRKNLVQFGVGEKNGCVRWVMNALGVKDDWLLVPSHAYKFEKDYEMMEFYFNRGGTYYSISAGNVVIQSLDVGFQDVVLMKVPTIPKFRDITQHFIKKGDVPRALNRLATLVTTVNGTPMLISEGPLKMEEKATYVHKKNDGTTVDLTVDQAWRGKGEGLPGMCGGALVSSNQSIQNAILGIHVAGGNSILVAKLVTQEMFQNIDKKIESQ
As to conditions: in vitro, partial viral polyprotein (ΔP1-2A-2B) as substrate.

In series [2] the test system is HAV. As to conditions: HAV-infected cells, inhibitor at 5 μM.

In general, IC50 refers to the point on the concentration scale where inhibition reaches its midpoint. With “N-acetyl-leucyl-alanyl-alanyl-(N,N-dimethyl)-glutamine-fluoromethylketone [inhibitor Ia]”, the IC50 in series [1] was 41 µM. In addition, the “reduction of viral yield” value in series [2] is 25 fold.
